Values joined by “and” are separate entries in the source; they are usually repeats but may differ in a detail not shown here. Identical values can stand only once.
Assays:
MMP-13 = MMP-13 ELISA on supernatants of TNF-α-treated chondrogenic pellets; type: cell-based, human
MMT/MCLT rat model of OA [1] = test: MMT/MCLT trial 1 weight bearing (daily morphine 10 mg/kg, tacrolimus 0.3 or 0.6 mg/kg, fluocinolone 5 or 10 μg/kg, clonidine 100 μg/kg, alendronate 10 μg/kg i.p.; curcumin, withaferin 50 mg/kg p.o.); type: in vivo; settings: low or only dose
Description: Weight bearing (WB; incapacitance) was measured five times per day, once per week, using a Linton incapacitance meter (Stoelting Co., Wood Dale, IL, USA). Rats were acclimated to the meter before study initiation, and, similarly, immediately before WB, the animals were placed in the meter and allowed to acclimate for 2–5 minutes. Each hind paw was placed on a separate force plate so that the force exerted by each side could be averaged over a 5-second interval, and the mean of three readings was taken for each data point. Right paw force was compared with that on the left side for each group to confirm that animals were displaying incapacitance and/or pain behavior. Differences in force (left minus right) and right paw force as a percentage of the total force exerted by both paws were determined and compared between groups.
Following isoflurane anesthesia, the medial collateral ligament was transected just below its attachment to the meniscus in the right knee. The meniscus was cut at its narrowest point away from the ossicles so as not to damage the tibial surface and to ensure that the anterior and posterior meniscus halves were freely movable. […] In trial 2, drugs were administered IA weekly beginning 1 week following surgery. Three weeks postsurgery, animals were humanely killed and their right knees were collected for histopathology. All studies were conducted in accordance with the International Association for the Study of Pain Guidelines and were approved by the Bolder BioPATH IACUC (Boulder, CO, USA) in compliance with regulations before study initiation (IACUC protocol BBP03-006). Those running the studies were blinded to the treatments. See Additional file 1 for further details.
Isoflurane and the right knee area prepared for surgery. A skin incision was made over the medial aspect of the knee and the medial collateral ligament was exposed by blunt dissection and then transected. The medial meniscus was cut through the full thickness to simulate a complete tear and the skin was then closed with suture.
All pharmaceutical agents were prepared and stored as recommended by the supplier. Daily drug preparations were made fresh from stock solutions. […]
In Trial 2 drugs were […]
administered IA weekly beginning one week following surgery. […]
were delivered by gavage and were prepared in 0.3% Methyl Cellulose.
WB was measured five times a day, once a week, using a Linton incapacitance meter (Stoelting Co.) to assess pain behavior. Rats were acclimated to the incapacitance meter prior to study initiation.
Similarly, immediately prior to WB animals were placed in the incapacitance meter and allowed to acclimate for 2-5 minutes. Each hind paw was placed on a separate force plate so that the force exerted by each side could be averaged over a 5 second interval and the mean of three readings taken for each data point. Right paw force was compared to left for each group to confirm that animals were displaying incapacitance / pain behavior. Difference in force (left minus right) and right paw force as a percentage of the total force exerted by both paws were determined and compared between groups. Three weeks after surgery, animals were humanely euthanized and right knees collected for histopathology evaluation.
Figure 2. MMT/MCLT Trial Timeline […]
MMT/MCLT Dosing (once/day)
The study design and animal usage was approved by Bolder BioPATH’s Institutional Animal Care and Use Committee (IACUC) for compliance with regulations prior to study initiation (IACUC […]
Labs. Animals were identified by a distinct mark at the base of the tail delineating group and animal number. After randomization, all cages were labeled with protocol number, group numbers, and animal numbers with appropriate color-coding (see protocol).

MMT/MCLT rat model of OA [2] = test: MMT/MCLT trial 1 histopathology (same doses); type: in vivo; settings: low or only dose
Excerpt: For MMT/MCLT rat knee joints, sections were cut in 200-μm steps; stained with toluidine blue (also with a right and left half per section); and similarly analyzed for cartilage degeneration, proteoglycan loss, collagen damage, and osteophyte formation. Results were averaged across the three sections for an overall semiquantitative score. Regional differences across the tibial plateau were taken into consideration by dividing each section into three zones delineated using an ocular micrometer (outside, middle, and inside). Scores were based on the percentage of area affected within the zone.
Cartilage degeneration in the tibia was scored on a 5-point scale as detailed in the Methods section of Additional file 1. The total extent of degeneration of the tibial plateau was measured (in micrometers) and included an analysis of cell loss, proteoglycan loss, and collagen damage. Significant cartilage degeneration reflecting any degeneration extending through more than 50 % of the cartilage thickness was also measured. Collagen damage across the medial tibial plateau (the most severely affected section of the two halves) was also quantified.
Osteophytes and femoral cartilage degeneration were analyzed as detailed in Additional file 1. Scoring of the osteophytes and categorization into small, medium, and large was performed using an ocular micrometer. The actual osteophyte measurement (tidemark to farthest distance point extending toward the synovium) was also recorded. The femoral cartilage degeneration score and the three-zone sum of the tibial cartilage degeneration scores (mean of three levels) were summed to create a total cartilage degeneration score. The mean osteophyte score for each joint was added to this value to create a total joint score. […]
Histopathology MMT/MCLT Model

NCCCC(O)(P(=O)(O)O)P(=O)(O)O [Alendronate, Alendronate sodium]
Effective range against MMP-13 (MMP-13): Not effective | Weight bearing, hours with significant effect (MMT/MCLT rat model of OA [1]; day 7): 5 h | Weight bearing, hours with significant effect (MMT/MCLT rat model of OA [1]; day 14): 1 h | Bone score (MMT/MCLT rat model of OA [2]; mean): 2.75 | Femoral cartilage degeneration score (MMT/MCLT rat model of OA [2]; mean): 1.79 and 1.79 ± 0.60 | Tibial cartilage degeneration score, 3-zone total (MMT/MCLT rat model of OA [2]; mean): 5.83 | Tibial cartilage degeneration score, zone 1 (MMT/MCLT rat model of OA [2]; mean): 3.79 | Tibial cartilage degeneration score, zone 2 (MMT/MCLT rat model of OA [2]; mean): 2.04 | Tibial cartilage degeneration score, zone 3 (MMT/MCLT rat model of OA [2]; mean): 0.00 | Tibial cartilage degeneration width, significant (MMT/MCLT rat model of OA [2]; mean): 650.00 µm | Tibial cartilage degeneration width, total (MMT/MCLT rat model of OA [2]; mean): 1175.00 µm | Tibial osteophyte measure (MMT/MCLT rat model of OA [2]; mean): 479.17 µm | Tibial osteophyte score (MMT/MCLT rat model of OA [2]; mean): 3.63 | Total joint score (MMT/MCLT rat model of OA [2]; mean): 11.25 | Total joint score w/o femur (MMT/MCLT rat model of OA [2]; mean): 9.46 | % decrease, bone score (MMT/MCLT rat model of OA [2]; vs saline group): 15% | % decrease, femoral cartilage degeneration score (MMT/MCLT rat model of OA [2]; vs saline group): 2% | % decrease, osteophyte measure (MMT/MCLT rat model of OA [2]; vs saline group): 7% | % decrease, osteophyte score (MMT/MCLT rat model of OA [2]; vs saline group): 7% | % decrease, significant degeneration width (MMT/MCLT rat model of OA [2]; vs saline group): 11% | % decrease, tibial score 3-zone total (MMT/MCLT rat model of OA [2]; vs saline group): 11% | % decrease, tibial score zone 1 (MMT/MCLT rat model of OA [2]; vs saline group): 12% | % decrease, tibial score zone 2 (MMT/MCLT rat model of OA [2]; vs saline group): 8% | % decrease, tibial score zone 3 (MMT/MCLT rat model of OA [2]; vs saline group): 100% | % decrease, total degeneration width (MMT/MCLT rat model of OA [2]; vs saline group): 10% | % decrease, total joint score (MMT/MCLT rat model of OA [2]; vs saline group): 8% | % decrease, total joint score w/o femur (MMT/MCLT rat model of OA [2]; vs saline group): 10%
